The values that follow come from patent US20070259879A1, “Piperazine and piperidine biaryl derivatives” (priority 2006, published 2007).

Structures are written as SMILES. Some results are limits rather than exact numbers.

The subject of the assay is HIV-1 pseudotyped virus. Put plainly: HIV-1 pseudotyped virus assay (luciferase reporter gene, single cycle of infection). Format: cell-based. The note with it: Human immunodeficiency virus 1, CCR5, 72 h, read-out: Activity (antiviral activity, IC50). The text has this: In this example are illustrated experimental procedures for determining biological activity, such as antiviral activity. For determining biological activity, an HIV-1 infection assay was used to determine the antiviral potency for compounds of the present invention.
For determining biological activity, an HIV-1 pseudotyped virus assay was used to determine the respective antiviral potencies of each compound tested in the assay for comparison. The pseudotyped assay scores for a reduction in infection as indicated by decreased signal from the reporter gene encoding a luciferase enzyme (“reporter gene”). The assay employs cell lines expressing CD4 and either of the primary chemokine receptors (CCR5 or CXCR4) that HIV uses as a co-receptor (“target cells”). Pseudotyped virus was prepared by co-transfection of 293T cells with: 1) a plasmid construct carrying the HIV-1 envelope of choice, in combination with 2) a pseudotyped virus backbone construct in which (a) envelope expression has been abrogated due to a frameshift in the envelope sequence, and (b) the reporter gene replaces nef. Expression of HIV-1 envelope on 293T packaging cells results in the production of a pseudotyped virus carrying the reporter gene that is capable of a single cycle of infection.
The compounds of the present invention being tested for antiviral activity were serially diluted and dose responses determined in duplicate in two separate experiments. The compounds to be tested were added directly to the plated, target cells, followed by the addition of pseudotyped virus described above. The cells were cultured for three days prior harvest. Media and compound were removed, the cell monolayer was washed, lysed by detergent, and then frozen at −80 degrees C. for a minimum of 30 minutes. Following thawing and acclimation to room temperature, luciferase production was quatified by injecting 100 […]I of a substrate (of the enzyme encoded by the reporter gene) into each well followed by detecting the signal (light emitted from the interaction between the enzyme and substrate) after 5 seconds. In the pseudotyped assay, a 50% reduction in signal is significant, and provides the primary cutoff value for assessing antiviral activity (“IC50” is defined as the dilution resulting in a 50% reduction in enzymatic activity as interpolated from a titration curve). Representative compounds according to the present invention, and their antiviral activity, are illustrated in Table 3.
For `C[C@@H]1CN(C(=O)c2ccccc2)CCN1S(=O)(=O)c1ccc(-n2cccn2)cc1` [Example 133, [(R)-3-methyl-4-(4-pyrazole-1-yl-benzenesulfonyl)-piperazin-1-yl]-phenyl-methanone], the IC50 is greater than 5 µM.
For the compound `C[C@@H]1CN(C(=O)c2ccccc2)CCN1S(=O)(=O)c1ccc(-c2csnn2)cc1` [Example 134, [(R)-3-methyl-4-(4-[1,2,3]thiadiazol-4-yl-benzenesulfonyl)-piperazin-1-yl]-phenyl-methanone], the IC50 is greater than 5 µM.
Consider `CC1CN(C(=O)c2ccccc2)CCN1S(=O)(=O)c1ccc(-c2ccc3ccccc3n2)s1` (centres unmarked) [Example 135, (3-methyl-4-(5-(quinolin-2-yl)thiophen-2-ylsulfonyl)piperazin-1-yl)(phenyl)methanone], for which the IC50 is greater than 5 µM.
On to `Cc1ccc(C#N)c(-c2ccc(S(=O)(=O)N3CCN(C(=O)c4ccccc4)CC3C)s2)n1` (centres unmarked) [Example 136, 2-(5-(4-benzoyl-2-methylpiperazin-1-ylsulfonyl)thiophen-2-yl)-6-methylnicotinonitrile], for which the IC50 was greater than 5 µM.
Under `Cc1cccc(-c2ccc(S(=O)(=O)N3CCN(C(=O)c4ccccc4)CC3C)s2)n1` (centres unmarked) [Example 137, (3-methyl-4-(5-(6-methylpyridin-2-yl)thiophen-2-ylsulfonyl)piperazin-1-yl)(phenyl)methanone] stands greater than 5 µM.
For the compound `Cc1ccnc(-c2ccc(S(=O)(=O)N3CCN(C(=O)c4ccccc4)CC3C)s2)c1` (centres unmarked) [Example 138, (3-methyl-4-(5-(4-methylpyridin-2-yl)thiophen-2-ylsulfonyl)piperazin-1-yl)(phenyl)methanone], the IC50 was greater than 5 µM.
Under `Cc1cccnc1-c1ccc(S(=O)(=O)N2CCN(C(=O)c3ccccc3)CC2C)s1` (centres unmarked) [Example 139, (3-methyl-4-(5-(3-methylpyridin-2-yl)thiophen-2-ylsulfonyl)piperazin-1-yl)(phenyl)methanone] stands greater than 5 µM.
Under `CC1CN(C(=O)c2ccccc2)CCN1S(=O)(=O)c1ccc(-c2ncccn2)s1` (centres unmarked) [Example 141, (3-methyl-4-(5-(pyrimidin-2-yl)thiophen-2-ylsulfonyl)piperazin-1-yl)(phenyl)methanone] stands less than 5 µM; under `CC1CN(C(=O)c2ccccc2)CCN1S(=O)(=O)c1ccc(-c2cccs2)s1` (centres unmarked) [Example 142, (4-(2,2′-bithiophen-5-ylsulfonyl)-3-methylpiperazin-1-yl)(phenyl)methanone], less than 5 µM; under `CC1CN(C(=O)c2ccccc2)CCN1S(=O)(=O)c1ccc(-c2ccc(-c3ccon3)s2)s1` (centres unmarked) [Example 143, (4-(5′-(isoxazol-3-yl)-2,2′-bithiophen-5-ylsulfonyl)-3-methylpiperazin-1-yl)(phenyl)methanone], greater than 5 µM.
As for `CC1CN(C(=O)c2ccccc2)CCN1S(=O)(=O)c1ccc(-c2ccc(-c3ccno3)s2)s1` (centres unmarked) [Example 144, (4-(5′-(isoxazol-5-yl)-2,2′-bithiophen-5-ylsulfonyl)-3-methylpiperazin-1-yl)(phenyl)methanone], the half-maximal inhibitory concentration (IC50) is less than 5 µM.
Regarding `CC1CN(C(=O)c2ccccc2)CCN1S(=O)(=O)c1ccc(-c2ccccc2)s1` (centres unmarked) [Example 145, (3-methyl-4-(5-phenylthiophen-2-ylsulfonyl)piperazin-1-yl)(phenyl)methanone], the IC50 is greater than 5 µM.
As to `Cc1ccc(-c2ccc(S(=O)(=O)N3CCN(C(=O)c4ccccc4)CC3C)s2)nn1` (centres unmarked) [Example 146, (3-methyl-4-(5-(6-methylpyridazin-3-yl)thiophen-2-ylsulfonyl)piperazin-1-yl)(phenyl)methanone], the IC50 is greater than 5 µM.
In the case of `CC1CN(C(=O)c2ccccc2)CCN1S(=O)(=O)c1ccc(-c2ccc(C#N)cn2)s1` (centres unmarked) [Example 147], the IC50 was less than 5 µM.
For `CC1CN(C(=O)c2ccccc2)CCN1S(=O)(=O)c1ccc(-c2ccncn2)s1` (centres unmarked) [Example 148, (3-methyl-4-(5-(pyrimidin-4-yl)thiophen-2-ylsulfonyl)piperazin-1-yl)(phenyl)methanone] the value was greater than 5 µM.
Under `CC1CN(C(=O)c2ccccc2)CCN1S(=O)(=O)c1ccc(-c2cccnc2)s1` (centres unmarked) [Example 150, (3-methyl-4-(5-(pyridin-3-yl)thiophen-2-ylsulfonyl)piperazin-1-yl)(phenyl)methanone] stands greater than 5 µM; under `CC1CN(C(=O)c2ccccc2)CCN1S(=O)(=O)c1ccc(-c2ncnc3ccsc23)s1` (centres unmarked) [Example 151, (3-methyl-4-(5-(thieno[3,2-d]pyrimidin-4-yl)thiophen-2-ylsulfonyl)piperazin-1-yl)(phenyl)methanone], greater than 5 µM.
In the case of `CC1CN(C(=O)c2ccccc2)CCN1S(=O)(=O)c1ccc(-c2cc(-n3ccnc3)ncn2)s1` (centres unmarked) [Example 152, (4-(5-(6-(1H-imidazol-1-yl)pyrimidin-4-yl)thiophen-2-ylsulfonyl)-3-methylpiperazin-1-yl)(phenyl)methanone], the IC50 is greater than 5 µM.
Under `CC1CN(C(=O)c2ccccc2)CCN1S(=O)(=O)c1ccc(-c2ccncc2)s1` (centres unmarked) [Example 153, (3-methyl-4-(5-(pyridin-4-yl)thiophen-2-ylsulfonyl)piperazin-1-yl)(phenyl)methanone] stands greater than 5 µM; under `CC1CN(C(=O)c2ccccc2)CCN1S(=O)(=O)c1ccc(-c2nncc3ccccc23)s1` (centres unmarked) [Example 154, (3-methyl-4-(5-(phthalazin-1-yl)thiophen-2-ylsulfonyl)piperazin-1-yl)(phenyl)methanone], greater than 5 µM.
As to `CC(=O)c1cccc(-c2ccc(S(=O)(=O)N3CCN(C(=O)c4ccccc4)CC3C)s2)n1` (centres unmarked) [Example 155, 1-(6-(5-(4-benzoyl-2-methylpiperazin-1-ylsulfonyl)thiophen-2-yl)pyridin-2-yl)ethanone], the IC50 was greater than 5 µM.
Turning to `CC1CN(C(=O)c2ccccc2)CCN1S(=O)(=O)c1ccc(-c2ccc(-c3ccccc3)nn2)s1` (centres unmarked) [Example 156, (3-methyl-4-(5-(6-phenylpyridazin-3-yl)thiophen-2-ylsulfonyl)piperazin-1-yl)(phenyl)methanone], the IC50 was greater than 5 µM.
With `CC1CN(C(=O)c2ccccc2)CCN1S(=O)(=O)c1ccc(-c2ncccc2C(F)(F)F)s1` (centres unmarked) [Example 157, (3-methyl-4-(5-(3-(trifluoro-methyl)pyridin-2-yl)thiophen-2-ylsulfonyl)piperazin-1-yl)(phenyl)methanone], the IC50 was greater than 5 µM.
In the case of `Cc1nc2cc(-c3ccc(S(=O)(=O)N4CCN(C(=O)c5ccccc5)CC4C)s3)ccc2s1` (centres unmarked) [Example 158, (3-methyl-4-(5-(2-methylbenzo[d]thiazol-5-yl)thiophen-2-ylsulfonyl)piperazin-1-yl)(phenyl)methanone], the IC50 was greater than 5 µM.
For `C[C@@H]1CN(C(=O)c2ccccc2)CCN1S(=O)(=O)c1ccc(-c2csnn2)s1` [Example 165, [(R)-3-Methyl-4-(5-[1,2,3]thiadiazol-4-yl-thiophene-2-sulfonyl)-piperazin-1-yl]-phenyl-methanone] the value was greater than 5 µM; for `CC1CN(C(=O)c2ccccc2)CCN1S(=O)(=O)c1ccc(-c2cnco2)cc1` (centres unmarked) [Example 166, [3-Methyl-4-(4-oxazol-5-yl-benzenesulfonyl)-piperazin-1-yl]-phenyl methanone], greater than 5 µM; for `C[C@@H]1CN(C(=O)c2ccccc2)CCN1S(=O)(=O)c1ccc(-c2cc(C(F)(F)F)on2)s1` [Example 167, [(R)-3-Methyl-4-(5-[(5-trifluoromethyl)-isoxazol-3-yl]-thiophene-2-sulfonyl)-piperazin-1-yl]-phenyl-methanone], greater than 5 µM.
Regarding `C[C@@H]1CN(C(=O)c2ccccc2)CCN1S(=O)(=O)c1ccc(-c2ccccn2)s1` [Example 168, [(R)-3-Methyl-4-(5-pyridinyl-2-yl-thiophene-2-sulfonyl)-piperazin-1-yl]-phenyl-methanone], the concentration for half-maximal inhibition (IC50) is greater than 5 µM.
Under `CC1CN(C(=O)c2ccccc2)CCN1C(=O)C(=O)c1ccc(-c2ccn[nH]2)cc1` (centres unmarked) [Example 169, 1-(4-Benzoyl-2-methyl-piperazin-1-yl)-2-[4-(2H-pyrazol-3-yl)-phenyl]-ethane-1,2-dione] stands less than 5 µM; under `CC1CN(C(=O)c2ccccc2)CCN1C(=O)C(=O)c1ccc(-n2cncn2)cc1` (centres unmarked) [Example 170, 1-(4-Benzoyl-2-methyl-piperazin-1-yl)-2-(4-[1,2,4]triazol-1-yl-phenyl)-ethane-1,2-dione], less than 5 µM.
As to `CC1CN(C(=O)c2ccccc2)CCN1C(=O)C(=O)c1ccc(-c2ccco2)cc1` (centres unmarked) [Example 171, 1-(4-Benzoyl-2-methyl-piperazin-1-yl)-2-(4-furan-2-yl-phenyl)-ethane-1,2-dione], the IC50 was less than 5 µM.
For `CC1CN(C(=O)c2ccccc2)CCN1C(=O)C(=O)c1ccc(-c2ccn(C)n2)cc1` (centres unmarked) [Example 172, 1-(4-Benzoyl-2-methyl-piperazin-1-yl)-2-[4-(1-methyl-1H-pyrazol-3-yl)-phenyl]-ethane-1,2-dione], the IC50 is less than 5 µM.

For orientation: IC50 means the concentration that inhibits the measured activity by half.
